The assay addresses Envelope glycoprotein gp160 (Human immunodeficiency virus 1, UniProt Q6QLK5). Description: cell-free HIV fusion peptide-binding blockers – biochemical, uHTS, fluorescence dequenching, […] (AID 1986).

Calls of active or inactive are those of the source. Rule as the data show it: actives have a measured IC50 and inactives only a lower limit.

Sequence of Envelope glycoprotein gp160 (Q6QLK5 whole entry, the tested form may be a part): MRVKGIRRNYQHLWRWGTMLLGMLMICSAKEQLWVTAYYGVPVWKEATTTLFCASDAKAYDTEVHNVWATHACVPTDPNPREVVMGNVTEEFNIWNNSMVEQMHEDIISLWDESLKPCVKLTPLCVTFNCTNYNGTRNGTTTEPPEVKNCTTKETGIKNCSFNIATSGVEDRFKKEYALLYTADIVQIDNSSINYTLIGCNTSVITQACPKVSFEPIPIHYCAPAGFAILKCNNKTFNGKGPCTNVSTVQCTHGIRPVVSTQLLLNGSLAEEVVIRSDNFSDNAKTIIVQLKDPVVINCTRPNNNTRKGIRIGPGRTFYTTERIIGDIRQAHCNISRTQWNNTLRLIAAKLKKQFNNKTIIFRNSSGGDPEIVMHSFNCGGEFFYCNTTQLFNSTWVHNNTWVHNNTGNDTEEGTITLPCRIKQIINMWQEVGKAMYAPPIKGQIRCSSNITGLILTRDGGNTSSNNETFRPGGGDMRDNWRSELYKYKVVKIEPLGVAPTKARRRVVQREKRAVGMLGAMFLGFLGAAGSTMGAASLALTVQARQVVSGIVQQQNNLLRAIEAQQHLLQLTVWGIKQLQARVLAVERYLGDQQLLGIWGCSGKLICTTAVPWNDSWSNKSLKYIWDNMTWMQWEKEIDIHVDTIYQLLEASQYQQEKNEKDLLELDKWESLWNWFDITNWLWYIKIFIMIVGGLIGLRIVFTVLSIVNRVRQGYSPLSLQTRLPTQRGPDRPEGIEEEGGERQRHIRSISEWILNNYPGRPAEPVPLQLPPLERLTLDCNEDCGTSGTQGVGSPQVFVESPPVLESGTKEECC

In general, IC50 refers to the concentration needed to halve the response being measured. As for `CCCCN1C(=O)/C(=C/C=C/c2ccco2)C(=O)NC1=S`, the IC50 is 5.14 µM (active).
For the compound `CC(/C=C1\SC(=S)N(CCCC(=O)Nc2ccc(C(=O)O)cc2)C1=O)=C\c1ccccc1`, the IC50 is 17.2 µM (active).

(Values after ChEMBL document CHEMBL1201862, “PubChem BioAssay data set” (2004).)
